According to article PMC5774136, “Alarm pheromone and kairomone detection via bitter taste receptors in the mouse Grueneberg ganglion” (BMC Biology, 2018):

What was measured:
Experiment in all cases: Fura-2 calcium imaging, transfected HEK cells
Format in all cases: cell-based
[1] = target: T1, TAS2R115 (Mus musculus, UniProt Q7M719); conditions: 100 uM ligand; weak agonist; Galpha16-gustducin chimera co-expressed
T1 construct: N-terminal tag of first 39 residues of bovine rhodopsin; pcDNA3.1(+); HEK 293 cells (ATCC CRL-1573); co-expressed human Galpha16 / mouse gustducin C-terminal 44 chimera
T1 sequence (Q7M719 1-310): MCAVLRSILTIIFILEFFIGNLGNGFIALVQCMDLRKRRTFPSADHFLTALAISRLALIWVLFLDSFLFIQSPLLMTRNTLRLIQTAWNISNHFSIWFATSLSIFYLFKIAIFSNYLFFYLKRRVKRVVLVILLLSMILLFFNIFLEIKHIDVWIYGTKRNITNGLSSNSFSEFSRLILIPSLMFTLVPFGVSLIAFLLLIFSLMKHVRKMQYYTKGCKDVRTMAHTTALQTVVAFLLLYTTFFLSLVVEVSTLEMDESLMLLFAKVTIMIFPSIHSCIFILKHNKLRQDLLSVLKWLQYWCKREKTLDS

[2] = target: T2, TAS2R143 (Mus musculus, UniProt Q7TQB9); conditions: 100 uM ligand; agonist; Galpha16-gustducin chimera co-expressed
T2 construct: N-terminal tag of first 39 residues of bovine rhodopsin; pcDNA3.1(+); HEK 293 cells (ATCC CRL-1573); co-expressed human Galpha16 / mouse gustducin C-terminal 44 chimera
T2 sequence (Q7TQB9 1-293): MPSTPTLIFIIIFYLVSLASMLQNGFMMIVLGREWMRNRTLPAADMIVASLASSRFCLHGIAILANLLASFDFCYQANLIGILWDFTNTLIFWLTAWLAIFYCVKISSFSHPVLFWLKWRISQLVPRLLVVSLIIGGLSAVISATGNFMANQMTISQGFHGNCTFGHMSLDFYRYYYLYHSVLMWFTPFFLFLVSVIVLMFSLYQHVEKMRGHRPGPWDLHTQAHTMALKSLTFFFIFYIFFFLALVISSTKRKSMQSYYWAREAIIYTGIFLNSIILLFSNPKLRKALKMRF

[3] = target: T3, TAS2R131 (Mus musculus, UniProt Q7M708); conditions: 100 uM ligand; weak agonist; Galpha16-gustducin chimera co-expressed
T3 construct: N-terminal tag of first 39 residues of bovine rhodopsin; pcDNA3.1(+); HEK 293 cells (ATCC CRL-1573); co-expressed human Galpha16 / mouse gustducin C-terminal 44 chimera
T3 sequence (Q7M708 1-310): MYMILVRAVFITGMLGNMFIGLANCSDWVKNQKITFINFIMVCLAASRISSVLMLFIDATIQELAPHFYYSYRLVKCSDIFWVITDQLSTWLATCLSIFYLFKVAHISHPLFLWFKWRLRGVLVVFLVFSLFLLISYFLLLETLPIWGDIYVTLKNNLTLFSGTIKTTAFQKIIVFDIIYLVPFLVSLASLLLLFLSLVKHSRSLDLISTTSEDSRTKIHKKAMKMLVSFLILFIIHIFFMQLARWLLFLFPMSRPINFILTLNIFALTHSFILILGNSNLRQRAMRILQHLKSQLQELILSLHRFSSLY

[4] = target: T2, TAS2R143; conditions: 500 uM ligand; agonist; Galpha16-gustducin chimera co-expressed

**Q.** With `CCc1cnccn1` [2-EP, 2-ethylpyrazine] as the molecule, how does the “% of transfected cells responding at 100 uM” value [1] read?
**A.** ~ 5%

**Q.** And the “% of transfected cells responding at 100 uM” value [2]?
**A.** 14%

**Q.** What about the “% of transfected cells responding at 100 uM” value [3] of the same molecule?
**A.** ~ 5%

**Q.** 2,4,5-trimethylthiazoline [TMT] was tested. Which “% of transfected cells responding at 500 uM” value [4] did it give?
**A.** 51%

**Q.** With `CCC(C)C1=NCCS1` (stereo not drawn) [SBT, 2-sec-butylthiazoline] as the molecule, how does the “% of transfected cells responding at 100 uM” value [2] read?
**A.** 13%

**Q.** How did the “% of transfected cells responding at 100 uM” value [2] turn out when `CCCC1CCS1` (stereo not drawn) [2-PT, 2-propylthietane] was run?
**A.** 47%
